Results as given in EP4603105A1, “PHARMACEUTICAL COMPOSITION CONTAINING CYCLIC COMPOUND HAVING SELECTIVE KRAS INHIBITORY EFFECT AGAINST HRAS AND NRAS” (CHUGAI SEIYAKU KABUSHIKI KAISHA, priority 2022, dated 2024).
*1 amine or outer side, *2 acyl side, *3 side chain or, on linkers, in order; H or OH if unused. Where a SMILES comes first, the peptide text is derived from it. Bridges are numbered along the chain shown (N, C = ends). [ ]: non-standard residue; d: D form. The star is where a group is joined. hPhe(3-Cl-4-CF3) = N[C@@H](CCc1ccc(C(F)(F)F)c(Cl)c1)C(=O)O; X24 = CC(C)CN([C@@H](Cc1ccc(C(F)(F)F)cc1)C(=O)[*:2])[*:1]; NPrPhe(4-CF3) = CCCN[C@@H](Cc1ccc(C(F)(F)F)cc1)C(=O)O; NMeGly(cPent) = CN[C@H](C(=O)O)C1CCCC1; Aze(3S-Me) = C[C@H]1CN[C@@H]1C(=O)O; Hyp = O=C(O)[C@@H]1C[C@@H](O)CN1; NMeD = CN[C@@H](CC(=O)O)C(=O)O; NMeL = CN[C@@H](CC(C)C)C(=O)O; Pip = O=C(O)[C@@H]1CCCCN1; Morpholide = C1CN(*)CCO1; NMeA = CN[C@@H](C)C(=O)O; Ac5c = NC1(C(=O)O)CCCC1; Aze = O=C(O)[C@@H]1CCN1; Sar = CNCC(=O)O

Experiments:
[1] = system: human lung cancer strain NCI-H441; assay type: cell-based
In short: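 Proliferation was scored by […] measured after the reagent was added to cultures kept at 37°C in 5% carbon dioxide.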

HRAS wild-type protein = HRAS wild-type protein (Homo sapiens, UniProt P01112); assay: Binding to HRAS by surface plasmon resonance (SPR), KD and KD ratio to KRAS; settings: ratio of KD for HRAS wild-type protein to KD for KRAS
Sequence of HRAS wild-type protein (P01112 whole entry): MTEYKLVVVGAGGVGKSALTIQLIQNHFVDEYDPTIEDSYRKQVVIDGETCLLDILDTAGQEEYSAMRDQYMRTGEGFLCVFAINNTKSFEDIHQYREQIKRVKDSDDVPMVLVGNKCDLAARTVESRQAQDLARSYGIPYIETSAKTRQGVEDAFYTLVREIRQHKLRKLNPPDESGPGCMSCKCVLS
In short: (§1)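 SPR, 30°C: Avi-biotin RAS·GDP captured via Biotin CAPture (~100–300 RU); running buffer HBS pH 7.4, 1 mM DTT, 10 mM MgCl2, 0.01% Tween 20, 10 µM GDP, 4% DMSO. Single-cycle kinetics, 100 µL/min, 75 s injections; 1:1 model → KD.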

[2] = target: GDP-bound NRAS wild-type protein (Homo sapiens, UniProt P01111); assay: Binding to NRAS by surface plasmon resonance (SPR), KD and KD ratio to KRAS; settings: ratio of KD for GDP-bound NRAS wild-type protein to KD for KRAS
Sequence of GDP-bound NRAS wild-type protein (P01111 whole entry): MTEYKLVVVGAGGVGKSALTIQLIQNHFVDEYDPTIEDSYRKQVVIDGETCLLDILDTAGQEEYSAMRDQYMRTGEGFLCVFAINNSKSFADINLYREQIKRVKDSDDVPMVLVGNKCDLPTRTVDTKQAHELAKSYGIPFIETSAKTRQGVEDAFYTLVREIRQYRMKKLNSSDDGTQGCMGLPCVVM
In short: as §1

Structure (SMILES) | IC50 [1] [nM] | HRAS /KRAS (HRAS wild-type protein) | NRAS /KRAS [2]
CCCN1C(=O)[C@@H]2CCN2C(=O)[C@H](C)N(C)C(=O)[C@H]([C@@H](C)CC)NC(=O)[C@H](CC(C)C)N(C)C(=O)C[C@@H](C(=O)N2CCOCC2)N(C)C(=O)[C@H](C2CCCC2)N(C)C(=O)C2(CCCC2)NC(=O)[C@@H]2CCCCN2C(=O)[C@H](CCc2ccc(C(F)(F)F)c(Cl)c2)NC(=O)CN(C)C(=O)[C@@H]1Cc1ccc(C(F)(F)F)cc1 [PP0284] ([NMeL]I[NMeA][Aze][NPrPhe(4-CF3)][Sar][hPhe(3-Cl-4-CF3)][Pip][Ac5c][NMeGly(cPent)][NMeD]-Morpholide; lactam N-11) | 29 | B (a compound having 3 or more and less than 10 is denoted as B) | C (A compound having a KD ratio of 0.1 or more and less than 3 is denoted as C)
CC[C@H](C)[C@@H]1NC(=O)[C@H](CC(C)C)N(C)C(=O)C[C@@H](C(=O)N2CCOCC2)N(C)C(=O)[C@H](C2CCCC2)N(C)C(=O)C2(CCCC2)NC(=O)[C@@H]2CCCN2C(=O)[C@H](CCc2ccc(C(F)(F)F)c(Cl)c2)NC(=O)CN(C)C(=O)[C@H](Cc2ccc(C(F)(F)F)cc2)N2CCCC[C@@H](C2=O)N(C)C(=O)CN(C)C1=O [PP0318] | 2.3 | B (a compound having 3 or more and less than 10 is denoted as B) | B (a compound having 3 or more and less than 10 is denoted as B)
CC[C@H](C)[C@@H]1NC(=O)[C@H](CC(C)C)N(C)C(=O)C[C@@H](C(=O)N2CCOCC2)N(C)C(=O)[C@H](C2CCCC2)N(C)C(=O)C2(CCCC2)NC(=O)[C@@H]2CCCN2C(=O)[C@H](CCc2ccc(C(F)(F)F)c(Cl)c2)NC(=O)CN(C)C(=O)[C@H](Cc2ccc(C(F)(F)F)cc2)N(CC(C)C)C(=O)[C@@H]2CCN2C(=O)[C@H](C)N(C)C1=O [PP0107] ([NMeL]I[NMeA][Aze][X24][Sar][hPhe(3-Cl-4-CF3)]P[Ac5c][NMeGly(cPent)][NMeD]-Morpholide; lactam N-11) | 32.2 | C (A compound having a KD ratio of 0.1 or more and less than 3 is denoted as C) | C (A compound having a KD ratio of 0.1 or more and less than 3 is denoted as C)
CCCN1C(=O)[C@@H]2[C@@H](C)CN2C(=O)[C@H](C)N(C)C(=O)[C@H]([C@@H](C)CC)NC(=O)[C@H](CC(C)C)N(C)C(=O)C[C@@H](C(=O)N2CCOCC2)N(C)C(=O)[C@H](C2CCCC2)N(C)C(=O)C2(CCCC2)NC(=O)[C@@H]2CCCN2C(=O)[C@H](CCc2ccc(C(F)(F)F)c(Cl)c2)NC(=O)CN(C)C(=O)[C@@H]1Cc1ccc(C(F)(F)F)cc1 [PP0141] ([NMeL]I[NMeA][Aze(3S-Me)][NPrPhe(4-CF3)][Sar][hPhe(3-Cl-4-CF3)]P[Ac5c][NMeGly(cPent)][NMeD]-Morpholide; lactam N-11) | 3.5 | B (a compound having 3 or more and less than 10 is denoted as B) | C (A compound having a KD ratio of 0.1 or more and less than 3 is denoted as C)
CCCN1C(=O)[C@@H]2CCN2C(=O)[C@H](C)N(C)C(=O)[C@H]([C@@H](C)CC)NC(=O)[C@H](CC(C)C)N(C)C(=O)C[C@@H](C(=O)N2CCOCC2)N(C)C(=O)[C@H](C2CCCC2)N(C)C(=O)C2(CCCC2)NC(=O)[C@@H]2C[C@@H](O)CN2C(=O)[C@H](CCc2ccc(C(F)(F)F)c(Cl)c2)NC(=O)CN(C)C(=O)[C@@H]1Cc1ccc(C(F)(F)F)cc1 [PP0239] ([NMeL]I[NMeA][Aze][NPrPhe(4-CF3)][Sar][hPhe(3-Cl-4-CF3)][Hyp][Ac5c][NMeGly(cPent)][NMeD]-Morpholide; lactam N-11) | 6.2 | B (a compound having 3 or more and less than 10 is denoted as B) | C (A compound having a KD ratio of 0.1 or more and less than 3 is denoted as C)

More lines, main results first:

IC50 [1] [nM] | Structure (SMILES) | HRAS /KRAS (HRAS wild-type protein) | NRAS /KRAS [2]
35.7 | CCO[C@@H]1C[C@H]2C(=O)NC3(CCC3)C(=O)N(C)[C@@H](C3CCCC3)C(=O)N(C)[C@H](C(=O)N3CCOCC3)CC(=O)N(C)[C@@H](COC)C(=O)N[C@@H]([C@@H](C)CC)C(=O)N(C)CC(=O)N(C)[C@H]3CCCCCN(C3=O)[C@@H](Cc3ccc(C(F)(F)F)cc3)C(=O)N(C)CC(=O)N[C@@H](CCc3ccc(C(F)(F)F)c(Cl)c3)C(=O)N2C1 [PP0849] | B (a compound having 3 or more and less than 10 is denoted as B) | B (a compound having 3 or more and less than 10 is denoted as B)
120 | CCCN1C(=O)CN(C)C(=O)CN(C)C(=O)[C@H]([C@@H](C)CC)NC(=O)[C@@H]2CCCCCCC[C@@](C)(NC(=O)[C@@H]3C[C@@H](OCC)CN3C(=O)[C@H](CCc3cc(F)c(C(F)(F)F)c(F)c3)NC(=O)CN(C)C(=O)[C@@H]1Cc1ccc(C(F)(F)F)cc1)C(=O)N(C)[C@@H](C1CCCC1)C(=O)N(C)[C@H](C(=O)N1CCOCC1)CC(=O)N2C [PP0898] | B (a compound having 3 or more and less than 10 is denoted as B) | B (a compound having 3 or more and less than 10 is denoted as B)
